Measured values as given in publication PMC5365251, “Biophysical assay for tethered signaling reactions reveals tether-controlled activity for the phosphatase SHP-1” (Science Advances, 2017).

What was measured:
[1] = test system: phosphorylated ITIM peptide on PEG28; experiment: Calculation of local concentration, dephosphorylation time and rate enhancement from fitted parameters; parameters: species or system mouse
Description: The tethered enzymatic SPR assay also produced an estimate for the reach parameter (L), which was 23 nm. This number corresponds to a phosphorylated substrate experiencing a maximum local SHP-1 concentration of 45 μM when tethered, compared to, for example, a concentration of 1 μM in solution (Fig. 2A) or in the cytoplasm of immune cells (see Discussion).
Activatory and inhibitory immune receptors are both known to cluster in the plasma membrane ([11]–[15]), but the extent and consequences of clustering remain poorly understood. In the absence of clustering, a phosphorylation site on the cytoplasmic tails of these receptors will experience the low ~1-μM concentration of cytoplasmic SHP-1 [based on 280,000 copies of SHP-1 in cytotoxic T cells ([30]) with a radius of 5 μm]. Tethering of SHP-1 to nonclustered immune receptors at distances >50 nm results in even lower concentrations (for example, 0.04 μM when receptors are 50-nm apart), but when clustered within 5 nm, we can now estimate that this phosphorylated site will experience an SHP-1 concentration of 45 μM (Fig. 8A). […] These concentrations are calculated using the formula for σ with L = 23 nm for r = 5 and 50 nm (see Materials and Methods). We note that this is based on a reach of L = 23 nm, which represents SHP-1 bound to an ITIM on PEG28 dephosphorylating another ITIM on PEG28.
The combined effects induced by SHP-1 tethering on allosteric activation (20-fold) and local substrate concentration (45-fold) can be summarized by calculating the dephosphorylation rate ([SHP-1] × kcat* ).
A key component of the models (described below) is the calculation of the local substrate concentration that a tethered enzyme experiences. We assume that the motion of an unbound phosphorylated peptide (state A) and the motion of SHP-1 bound to a phosphorylated peptide (state B) can both be approximated by the worm-like chain model, which is a widely used polymer model. […]

PEG28-ITIM = experiment: Anti-phosphotyrosine antibody injected after SHP-1 on SPR chip: surviving phosphotyrosines; assay type: biochemical, mouse
Description: To create a substrate surface for SHP-1 in SPR, we coated a surface with peptides containing an ITIM sequence, from the […] of the inhibitory receptor LAIR-1, with a 28-repeat polyethylene glycol (PEG) spacer (PEG28-ITIM; Table 1). When SHP-1 was injected over this surface, we observed a complicated curve with an initial binding phase that was quickly followed by a reduction in binding despite continuous injection of SHP-1 (Fig. 2A). To convert the arbitrary response units reported by the SPR instrument to a more meaningful unit, we normalized this curve to maximum binding, assuming a one-to-one interaction with peptide (see Materials and Methods).
Fig. 2 An SPR assay recovers five independent biophysical/biochemical constants characterizing tethered enzymatic reactions by SHP-1. (A) Representative SPR trace (black dots) for SHP-1 injected over a surface immobilized with 48.5 RU of an ITIM peptide derived from LAIR-1 on a 28-repeat PEG linker (PEG28-ITIM). A fit of the MPDPDE model (red line) provides estimates for the indicated parameters. Early time data and fit are shown on the right. S1. […] (C) Schematic of reactions taking place when SHP-1 is injected over a surface of immobilized phosphorylated peptides. […]

increase in SHP-1 (local substrate) concentration on tethering to clustered receptors ([1]; solution 1 μM versus tethered and clustered 45 μM): 45 fold
Substance: SHP-1: murine SHP-1 tyrosine phosphatase with an N-terminal 6× His tag, expressed in E. coli
increase in overall dephosphorylation rate when tethered and clustered ([1]; [SHP-1] × kcat*, 45 μM × 0.0118 versus 1 μM × 0.000603 μM^-1 s^-1): 900 fold
reduction of reaction time by tethering ([1]; time to 50% dephosphorylation with versus without tethering): 125 fold
dephosphorylation of immobilised peptide (in words) (PEG28-ITIM; anti-phosphotyrosine antibody (clone 4G10) injected after SHP-1 on SPR chip, PEG28-ITIM): near complete dephosphorylation
anti-phosphotyrosine antibody binding after SHP-1 injection (in words) (PEG28-ITIM; experimental flow cell compared to buffer-injected control with equivalent peptide levels, Fig. 2B): reduced binding
